From ChEMBL document CHEMBL5143687, “Design, synthesis and biological evaluation of hydrogen sulfide-releasing isochroman-4-one derivatives as new antihypertensive agent candidates” (Bioorg Med Chem, 2022)

Columns and labels:
Aortic ring [1] = test: Vasorelaxant activity in Sprague-Dawley rat aortic rings assessed as reduction in noradrenaline-induced contractions at 10 uM relative to control; type: functional, Thoracic aorta; design: scale not given: the % may be the effect or the level left
Aortic ring [2] = test: Vasorelaxant activity in Sprague-Dawley rat aortic rings assessed as reduction in noradrenaline-induced contractions at 100 uM relative to control; type: functional, Thoracic aorta; design: scale not given: the % may be the effect or the level left
Aortic ring [3] = test: Vasorelaxant activity in Sprague-Dawley rat aortic rings assessed as reduction in noradrenaline-induced contractions; type: functional, tissue-based; conditions: Thoracic aorta, DDE = dose-dependent effect
[4] = Prodrug conversion in sodium phosphate buffer assessed as H2S release in presence of L-cysteine by UV-Vis spectrophotometry; type: ADME
CHO = test: Cytotoxicity against CHO cells assessed as cell viability at 100 uM after 24 hrs MTT assay; type: toxicity, cell-based, Cricetulus griseus; conditions: chinese hamster
Rattus norvegicus [5] = test: Antihypertensive activity in spontaneous hypertensive rat model assessed as systolic blood pressure at 80 mg/kg, po measured after 1 hr by tail cuff method (reference value: 186.1 +/- 4.6 mmHg); type: functional
Rattus norvegicus [6] = test: Antihypertensive activity in spontaneous hypertensive rat model assessed as systolic blood pressure at 80 mg/kg, po measured after 2 hr by tail cuff method (reference value: 186.1 +/- 4.6 mmHg); type: functional
Rattus norvegicus [7] = test: Antihypertensive activity in spontaneous hypertensive rat model assessed as systolic blood pressure at 80 mg/kg, po measured after 4 hr by tail cuff method (reference value: 186.1 +/- 4.6 mmHg); type: functional
Rattus norvegicus [8] = test: Antihypertensive activity in spontaneous hypertensive rat model assessed as systolic blood pressure at 80 mg/kg, po measured after 6 hr by tail cuff method (reference value: 186.1 +/- 4.6 mmHg); type: functional
Rattus norvegicus [9] = test: Antihypertensive activity in spontaneous hypertensive rat model assessed as systolic blood pressure at 80 mg/kg, po measured after 8 hr by tail cuff method (reference value: 186.1 +/- 4.6 mmHg); type: functional
Rattus norvegicus [10] = test: Antihypertensive activity in spontaneous hypertensive rat model assessed as systolic blood pressure at 40 mg/kg, po measured after 1 hr by tail cuff method (reference value: 186.1 +/- 4.6 mmHg); type: functional
Rattus norvegicus [11] = test: Antihypertensive activity in spontaneous hypertensive rat model assessed as systolic blood pressure at 40 mg/kg, po measured after 2 hr by tail cuff method (reference value: 186.1 +/- 4.6 mmHg); type: functional
Rattus norvegicus [12] = test: Antihypertensive activity in spontaneous hypertensive rat model assessed as systolic blood pressure at 40 mg/kg, po measured after 4 hr by tail cuff method (reference value: 186.1 +/- 4.6 mmHg); type: functional
Rattus norvegicus [13] = test: Antihypertensive activity in spontaneous hypertensive rat model assessed as systolic blood pressure at 40 mg/kg, po measured after 6 hr by tail cuff method (reference value: 186.1 +/- 4.6 mmHg); type: functional
Rattus norvegicus [14] = test: Antihypertensive activity in spontaneous hypertensive rat model assessed as systolic blood pressure at 40 mg/kg, po measured after 8 hr by tail cuff method (reference value: 186.1 +/- 4.6 mmHg); type: functional

Row | SMILES | Activity (Aortic ring [1]) | Activity (Aortic ring [2]) | also measured
1 | COc1cc2c(cc1OCCCCCCCCCCCCOc1ccc(C(N)=S)cc1)C(=O)C(C)OC2 (centres undefined) | 2.2% | 12.5% | –
2 | COc1ccc2c(c1OCCCCOc1ccc(C(N)=S)cc1)COC(C)C2=O (centres undefined) | 2.9% | 35.1% | –
3 | COc1ccc2c(c1OCCCCCCCCOc1ccc(C(N)=S)cc1)COC(C)C2=O (centres undefined) | 25% | 56.9% | Activity (Aortic ring [3]): Dde; Activity [4]: Active; Activity (CHO): Non-Toxic
4 | COc1ccc2c(c1OCCCOc1ccc(C(N)=S)cc1)COC(C)C2=O (centres undefined) | 3.7% | 15.7% | –
5 | [Na+].[SH-] [SODIUM HYDROSULFIDE] | 18.7% | 52.9% | –
6 | COc1cc2c(cc1OCCCCCOc1ccc(C(N)=S)cc1)C(=O)C(C)OC2 (centres undefined) | 6.6% | 28.2% | –
7 | COc1ccc2c(c1OCCCCCOc1ccc(C(N)=S)cc1)COC(C)C2=O (centres undefined) | 30.2% | 55.4% | Activity (Aortic ring [3]): Dde; Activity [4]: Active; Activity (CHO): Non-Toxic
8 | COc1cc2c(cc1OCCCCOc1ccc(C(N)=S)cc1)C(=O)C(C)OC2 (centres undefined) | 5.1% | 4.3% | –
9 | COc1cc2c(cc1OCCCCCCCCOc1ccc(C(N)=S)cc1)C(=O)C(C)OC2 (centres undefined) | 19.9% | 31.2% | –
10 | COc1cc2c(cc1O)C(=O)C(C)OC2 (centres undefined) | 0.4% | 6.5% | –
11 | COc1cc2c(cc1OCCCCCCOc1ccc(C(N)=S)cc1)C(=O)C(C)OC2 (centres undefined) | 49.6% | 66.7% | Activity (Aortic ring [3]): Dde; Activity (Rattus norvegicus [5]): 170.2 mmHg; Activity (Rattus norvegicus [6]): 137.4 mmHg; Activity (Rattus norvegicus [7]): 142.2 mmHg; Activity (Rattus norvegicus [8]): 153.6 mmHg; Activity (Rattus norvegicus [9]): 169.4 mmHg; Activity [4]: Active; Activity (CHO): Non-Toxic
12 | COc1cc2c(cc1OCCCOc1ccc(C(N)=S)cc1)C(=O)C(C)OC2 (centres undefined) | 45.4% | 61.8% | Activity (Aortic ring [3]): Dde; Activity (CHO): Non-Toxic
13 | COc1ccc2c(c1O)COC(C)C2=O (centres undefined) | 4.3% | 50.7% | –
14 | COc1ccc2c(c1OCCCCCCOc1ccc(C(N)=S)cc1)COC(C)C2=O (centres undefined) | 20% | 31.1% | –
15 | NC(=S)c1ccc(O)cc1 | 1.7% | 17.3% | –
16 | COc1ccc2c(c1OCCOc1ccc(C(N)=S)cc1)COC(C)C2=O (centres undefined) | 19.8% | 31.4% | –
17 | CC1OCc2c(ccc(O)c2O)C1=O (racemic) | – | – | Activity (Rattus norvegicus [5]): 170.9 mmHg; Activity (Rattus norvegicus [6]): 165.4 mmHg; Activity (Rattus norvegicus [7]): 151.5 mmHg; Activity (Rattus norvegicus [8]): 140.1 mmHg; Activity (Rattus norvegicus [9]): 150.6 mmHg
18 | COc1ccc2c(c1OCCCCCCCCCCCCOc1ccc(C(N)=S)cc1)COC(C)C2=O (centres undefined) | 12.6% | 25% | –
19 | COc1ccc2c(c1OCCCOc1ccc(-c3cc(=S)ss3)cc1)COC(C)C2=O (centres undefined) | 5.4% | 9.2% | –
20 | COc1ccc2c(c1OCCOc1ccc(-c3cc(=S)ss3)cc1)COC(C)C2=O (centres undefined) | 5.5% | 18.2% | –
21 | COc1ccccc1N1CCN(CC(O)COc2cccc3ccccc23)CC1 (centres undefined) [NAFTOPIDIL] | – | – | Activity (Rattus norvegicus [10]): 161.4 mmHg; Activity (Rattus norvegicus [11]): 148.1 mmHg; Activity (Rattus norvegicus [12]): 153.7 mmHg; Activity (Rattus norvegicus [13]): 158.2 mmHg; Activity (Rattus norvegicus [14]): 170.5 mmHg
